The nature of series [1]: Cytotoxicity against human SH-SY5Y cells by MTT assay. In kind it is cell-based.
A short description of series [2]: Selectivity index, ratio of IC50 for equine BuchE using butyrylthiocholine as substrate by Ellman's method to IC50 for human BuchE. (In general: Ellman's reagent forms a yellow product with free thiols.)
For series [3], the target named is Acetylcholinesterase (Homo sapiens, UniProt P22303). As to the kind of experiment: Inhibition of human AchE.
The target in series [4] is Cholinesterase (Homo sapiens, UniProt P06276). The experiment in a line: Inhibition of human BuchE.
The target of series [5] is Acetylcholinesterase (Electrophorus electricus, UniProt O42275). The experiment in a line: Inhibition of electric eel AchE using acetylthiocholine as substrate by Ellman's method.
Series [6] has as its target acetylcholinesterase (AChE) (Electrophorus electricus, UniProt O42275). The experiment in a line: Inhibition of electric eel AchE at 100 uM using acetylthiocholine as substrate by Ellman's method relative to control. Particulars: electric eel AChE enzyme, probe acetylthiocholine.
Series [7] addresses Cholinesterase (Equus caballus, UniProt P81908).
Description: Inhibition of equine BuchE using butyrylthiocholine as substrate by Ellman's method
In series [8] the target is acetylcholinesterase (AChE) (Homo sapiens, UniProt P22303). As to the kind of experiment: Inhibition of human AchE at 100 uM relative to control. Particulars: human AChE enzyme.

The structures appear in SMILES notation.

For orientation: CC50 means the concentration that lowers cell viability or growth by half. A low value points to greater toxicity to the cells. What is called IC50 is the concentration needed to halve the response being measured. As usually defined, the inhibition is the share of the control response that was lost under treatment.

Chain of Cholinesterase (Equus caballus, UniProt P81908) (P81908 whole entry): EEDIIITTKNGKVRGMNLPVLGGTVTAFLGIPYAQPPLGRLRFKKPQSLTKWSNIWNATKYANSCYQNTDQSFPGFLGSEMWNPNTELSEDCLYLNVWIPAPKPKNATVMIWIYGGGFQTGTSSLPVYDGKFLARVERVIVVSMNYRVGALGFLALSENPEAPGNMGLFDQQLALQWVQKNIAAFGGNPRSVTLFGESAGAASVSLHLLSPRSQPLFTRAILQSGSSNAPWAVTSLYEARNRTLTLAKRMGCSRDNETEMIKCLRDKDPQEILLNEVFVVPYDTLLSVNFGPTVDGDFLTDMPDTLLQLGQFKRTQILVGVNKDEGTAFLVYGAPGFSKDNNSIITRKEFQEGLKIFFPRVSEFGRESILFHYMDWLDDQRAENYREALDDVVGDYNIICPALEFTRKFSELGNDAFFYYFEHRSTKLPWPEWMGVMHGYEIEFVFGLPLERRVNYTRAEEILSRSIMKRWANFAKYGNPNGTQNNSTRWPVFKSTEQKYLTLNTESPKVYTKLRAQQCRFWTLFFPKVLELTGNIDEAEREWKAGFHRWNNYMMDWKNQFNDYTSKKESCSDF
Chain of Acetylcholinesterase (Electrophorus electricus, UniProt O42275) (O42275 whole entry): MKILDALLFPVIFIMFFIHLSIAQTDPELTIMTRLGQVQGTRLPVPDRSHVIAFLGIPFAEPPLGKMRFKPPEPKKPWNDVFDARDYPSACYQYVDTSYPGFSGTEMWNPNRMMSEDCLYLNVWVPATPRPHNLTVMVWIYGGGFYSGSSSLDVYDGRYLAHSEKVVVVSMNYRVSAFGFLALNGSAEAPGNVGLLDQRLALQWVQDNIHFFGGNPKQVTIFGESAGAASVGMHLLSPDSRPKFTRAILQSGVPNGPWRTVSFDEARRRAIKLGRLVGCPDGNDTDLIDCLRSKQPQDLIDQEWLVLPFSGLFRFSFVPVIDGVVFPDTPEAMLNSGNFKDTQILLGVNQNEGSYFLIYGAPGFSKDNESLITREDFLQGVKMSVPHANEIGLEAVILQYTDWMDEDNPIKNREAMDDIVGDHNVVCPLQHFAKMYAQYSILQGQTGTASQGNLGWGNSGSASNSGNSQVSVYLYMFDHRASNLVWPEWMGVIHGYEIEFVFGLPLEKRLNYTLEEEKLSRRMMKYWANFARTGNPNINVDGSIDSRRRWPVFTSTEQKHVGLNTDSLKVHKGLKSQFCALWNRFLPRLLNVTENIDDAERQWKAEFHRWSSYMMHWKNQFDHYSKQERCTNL
Chain of acetylcholinesterase (AChE) (Electrophorus electricus, UniProt O42275) (O42275 whole entry): as above
Chain of Cholinesterase (Homo sapiens, UniProt P06276) (P06276 whole entry): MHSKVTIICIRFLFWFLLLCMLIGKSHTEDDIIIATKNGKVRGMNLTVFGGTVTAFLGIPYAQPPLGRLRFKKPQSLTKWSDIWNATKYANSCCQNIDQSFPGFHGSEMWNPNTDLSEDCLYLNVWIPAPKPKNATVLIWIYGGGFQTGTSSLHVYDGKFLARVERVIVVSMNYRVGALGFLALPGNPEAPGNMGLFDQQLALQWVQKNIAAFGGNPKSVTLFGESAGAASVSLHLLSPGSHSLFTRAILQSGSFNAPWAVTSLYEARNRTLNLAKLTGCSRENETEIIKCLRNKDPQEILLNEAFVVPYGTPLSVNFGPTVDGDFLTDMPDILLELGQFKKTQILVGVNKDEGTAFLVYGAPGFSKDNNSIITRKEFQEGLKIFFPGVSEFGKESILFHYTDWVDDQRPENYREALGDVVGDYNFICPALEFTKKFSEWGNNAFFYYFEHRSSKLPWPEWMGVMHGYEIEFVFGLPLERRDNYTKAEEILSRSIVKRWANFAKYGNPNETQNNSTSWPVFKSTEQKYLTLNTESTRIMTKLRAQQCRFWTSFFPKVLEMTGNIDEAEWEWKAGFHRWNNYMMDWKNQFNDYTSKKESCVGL
Chain of Acetylcholinesterase (Homo sapiens, UniProt P22303) (P22303 whole entry): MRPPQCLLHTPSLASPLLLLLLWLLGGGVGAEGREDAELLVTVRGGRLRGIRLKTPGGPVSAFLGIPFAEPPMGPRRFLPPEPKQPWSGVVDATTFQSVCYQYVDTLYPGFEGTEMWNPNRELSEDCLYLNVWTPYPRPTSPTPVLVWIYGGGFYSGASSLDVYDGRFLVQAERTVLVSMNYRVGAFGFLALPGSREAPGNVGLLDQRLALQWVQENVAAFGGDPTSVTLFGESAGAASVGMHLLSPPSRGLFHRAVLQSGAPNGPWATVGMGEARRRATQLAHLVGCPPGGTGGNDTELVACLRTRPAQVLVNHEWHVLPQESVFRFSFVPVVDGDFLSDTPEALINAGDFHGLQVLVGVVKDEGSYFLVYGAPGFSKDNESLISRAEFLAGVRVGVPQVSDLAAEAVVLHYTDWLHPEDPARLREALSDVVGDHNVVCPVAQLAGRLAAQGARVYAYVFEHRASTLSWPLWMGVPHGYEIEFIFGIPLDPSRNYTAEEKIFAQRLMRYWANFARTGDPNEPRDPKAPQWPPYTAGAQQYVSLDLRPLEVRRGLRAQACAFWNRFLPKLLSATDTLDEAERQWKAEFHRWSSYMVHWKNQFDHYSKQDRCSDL
Chain of acetylcholinesterase (AChE) (Homo sapiens, UniProt P22303) (P22303 whole entry): as above

The compound `COc1cc(C2C3=C(CCCC3=O)NC3=C2C(=O)CCC3)ccc1OCc1ccc(F)cc1` registered a CC50 in series [1] of no less than 100 µM. Further, the Ratio IC50 in series [2] amounted to 2.5. Further, the IC50 in series [3] was 125 µM; in series [4], 98 nM; in series [5] it was greater than 100 µM; in series [7], 242 nM. In series [6], this compound yielded an inhibition at 100 µM of 27%.
Take `O=C1CCCC2=C1C(c1ccc(OCc3ccccc3)cc1)C1=C(CCCC1=O)N2`: the IC50 in series [5] is greater than 100 µM; in series [7] it was 6010 nM. The inhibition at 100 µM in series [6] was determined as 24%.
On the same counts, the results for `CCOc1cc(C2C3=C(CCCC3=O)NC3=C2C(=O)CCC3)ccc1OCc1ccccc1` are greater than 100 µM, 752 nM and 19%.
On the same counts, the results for `CN1C2=C(C(=O)CCC2)C(c2ccc(OCc3ccc(Cl)cc3)c(Cl)c2)C2=C1CCCC2=O` are greater than 100 µM, 1660 nM and 23%.
On the same counts, the results for `COc1cc(C2C3=C(CCCC3=O)NC3=C2C(=O)CCC3)ccc1OS(=O)(=O)c1ccc(C)cc1` are greater than 100 µM, 959 nM and 15%.
In the case of `O=C1CCCC2=C1C(c1ccc(OCc3cccc(F)c3)c(Br)c1)C1=C(CCCC1=O)N2`, the Ratio IC50 in series [2] is 2.5. Also, the IC50 is greater than 100 µM in series [3], 142 nM in series [4], greater than 100 µM in series [5] and 388 nM in series [7]. Moreover, the inhibition at 100 µM was 39% in series [8] and 22% in series [6].
`COc1cc(C2C3=C(CCCC3=O)N(C)C3=C2C(=O)CCC3)ccc1OCc1ccc(F)cc1`: the IC50 is greater than 100 µM in series [5] and 2440 nM in series [7]. For the same compound, at 100 µM the inhibition in series [6] was 33%.
Turning to `O=C1CCCC2=C1C(c1ccc(OCc3ccccc3)c(Br)c1)C1=C(CCCC1=O)N2`, the IC50 in series [5] was greater than 100 µM; in series [7], 633 nM. The compound also came in with an inhibition at 100 µM in series [6] of 14%.

Source of the values: ChEMBL document CHEMBL4627331 (Bioorg Med Chem Lett, 2020).
